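Five concentrations, 48 hours, 96-well plates. Definition used: TGI = concentration required for complete inhibition of growth.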 The source made the active and inactive calls. No stated cut-off is given here; in the data, active means GI50 below about 0.43 µM; inactive means the rest.
Key:
Assay in all cases: growth of human tumour cells (NCI), 48 h
[1] = tested on: COLO 205 colon
[2] = tested on: HL-60(TB) leukemia
[3] = tested on: K-562 leukemia
[4] = tested on: SF-295 CNS
[5] = tested on: M14 melanoma
[6] = tested on: ACHN renal
[7] = tested on: HS 578T breast
[8] = tested on: OVCAR-5 ovarian
[9] = tested on: T-47D breast
[10] = tested on: LOX IMVI melanoma
[11] = tested on: RPMI-8226 leukemia
[12] = tested on: PC-3 prostate
[13] = tested on: RXF 393 renal
[14] = tested on: HCT-116 colon
[15] = tested on: IGROV1 ovarian
[16] = tested on: SN12C renal
[17] = tested on: SK-MEL-5 melanoma
[18] = tested on: MDA-N
[19] = tested on: HT29 colon
[20] = tested on: MDA-MB-231 breast
[21] = tested on: NCI-H23 lung
[22] = tested on: SF-539 CNS
[23] = tested on: HOP-92 NSCLC
[24] = tested on: UACC-62 melanoma
[25] = tested on: SR leukemia
[26] = tested on: OVCAR-3 ovarian
[27] = tested on: HCC-2998 colon
[28] = tested on: CAKI-1 renal
[29] = tested on: A549 NSCLC
[30] = tested on: UO-31 renal
[31] = tested on: SNB-19 CNS
[32] = tested on: HOP-62 NSCLC
[33] = tested on: MCF7 breast
[34] = tested on: SK-MEL-28 melanoma
[35] = tested on: SK-OV-3 ovarian
[36] = tested on: A498 renal
[37] = tested on: MOLT-4 leukemia
[38] = tested on: NCI-H460 lung
[39] = tested on: DU-145 prostate
[40] = tested on: OVCAR-4 ovarian
[41] = tested on: CCRF-CEM leukemia
[42] = tested on: TK-10 renal
[43] = tested on: SW-620 colon
[44] = tested on: UACC-257 melanoma
[45] = tested on: MALME-3M melanoma
[46] = tested on: MDA-MB-435
[47] = tested on: 786-0 renal
[48] = tested on: U251 CNS
[49] = tested on: SF-268 CNS
[50] = tested on: BT-549 breast
[51] = tested on: SNB-75 CNS
[52] = tested on: KM12 colon
[53] = tested on: NCI-H522 lung
[54] = tested on: EKVX NSCLC
[55] = tested on: NCI-H226 lung
[56] = tested on: HCT-15 colon
[57] = tested on: OVCAR-8 ovarian
[58] = tested on: SK-MEL-2 melanoma

[N-]=[N+]=NC1=CC(=O)c2cccc3cccc1c23 gave a TGI [1] of over 100 µM, a TGI [2] of over 100 µM and a TGI [3] of over 100 µM. It also gave a TGI [4] of 84.3 µM, a TGI [5] of 82.8 µM and a TGI [6] of over 100 µM. For the same compound, the TGI [7] was 69.8 µM, the TGI [8] was over 100 µM and the TGI [9] was over 100 µM. The TGI [10] was over 100 µM, the TGI [11] was over 100 µM and the TGI [12] was over 100 µM. For the same compound, the TGI [13] was 34.5 µM, the TGI [14] was over 100 µM and the TGI [15] was 51.8 µM. For the same compound, the TGI [16] was over 100 µM, the TGI [17] was 27.8 µM and the TGI [18] was over 100 µM. It also gave a TGI [19] of over 100 µM, a TGI [20] of over 100 µM and a TGI [21] of 82 µM. The TGI [22] was 88 µM, the TGI [23] was 66.7 µM and the TGI [24] was 42.1 µM. It also gave a TGI [25] of over 100 µM, a TGI [26] of over 100 µM and a TGI [27] of over 100 µM. For the same compound, the TGI [28] was over 100 µM, the TGI [29] was over 100 µM and the TGI [30] was over 100 µM. It also gave a TGI [31] of over 100 µM, a TGI [32] of 48.1 µM and a TGI [33] of over 100 µM. It also gave a TGI [34] of over 100 µM, a TGI [35] of 35.6 µM and a TGI [36] of 38.9 µM. The TGI [37] was over 100 µM, the TGI [38] was over 100 µM and the TGI [39] was over 100 µM. The TGI [40] was over 100 µM, the TGI [41] was over 100 µM and the TGI [42] was 88.2 µM. It also gave a TGI [43] of over 100 µM, a TGI [44] of 72.2 µM and a TGI [45] of over 100 µM. It also gave a TGI [46] of over 100 µM, a TGI [47] of over 100 µM and a TGI [48] of 71 µM. It also gave a TGI [49] of over 100 µM, a TGI [50] of 63 µM and a TGI [51] of 31 µM. For the same compound, the TGI [52] was over 100 µM.

With Cc1nn(C(=O)Cc2ccccc2)c2c1C(c1ccc3ccccc3c1O)SC(N)=N2 (stereo not given) the TGI [1] was over 100 µM, the TGI [2] was over 100 µM and the TGI [53] was over 100 µM. The TGI [3] was over 100 µM, the TGI [4] was over 100 µM and the TGI [5] was over 100 µM. For the same compound, the TGI [6] was over 100 µM, the TGI [7] was over 100 µM and the TGI [9] was over 100 µM. For the same compound, the TGI [10] was over 100 µM, the TGI [11] was over 100 µM and the TGI [12] was over 100 µM. The TGI [14] was over 100 µM, the TGI [15] was over 100 µM and the TGI [54] was over 100 µM. It also gave a TGI [16] of over 100 µM, a TGI [17] of over 100 µM and a TGI [18] of over 100 µM. For the same compound, the TGI [19] was over 100 µM, the TGI [20] was over 100 µM and the TGI [55] was over 100 µM. The TGI [21] was over 100 µM, the TGI [22] was over 100 µM and the TGI [24] was over 100 µM. It also gave a TGI [25] of over 100 µM, a TGI [27] of over 100 µM and a TGI [28] of over 100 µM. It also gave a TGI [29] of over 100 µM, a TGI [30] of over 100 µM and a TGI [31] of over 100 µM. The TGI [32] was over 100 µM, the TGI [33] was over 100 µM and the TGI [34] was over 100 µM. The TGI [35] was over 100 µM, the TGI [36] was over 100 µM and the TGI [37] was over 100 µM. The TGI [38] was over 100 µM, the TGI [39] was over 100 µM and the TGI [56] was over 100 µM. It also gave a TGI [41] of 64.2 µM, a TGI [42] of over 100 µM and a TGI [43] of over 100 µM. It also gave a TGI [44] of over 100 µM, a TGI [46] of over 100 µM and a TGI [49] of over 100 µM. The TGI [57] was over 100 µM, the TGI [50] was over 100 µM and the TGI [51] was over 100 µM. The TGI [52] was over 100 µM.

In the case of C[C@H](N)C(O)C/C=C\C/C=C\C/C=C\C/C=C\C/C=C\C/C=C\CCCCCCC(O)[C@H](C)N (stereo not given in full), the outcome [1] is reported as “inactive”, the outcome [2] is reported as “inactive” and the outcome [53] is reported as “inactive”. For the same compound, the outcome [3] was “inactive”, the outcome [4] was “inactive” and the outcome [5] was “inactive”. The outcome [6] was “inactive”, the outcome [7] was “inactive” and the outcome [8] was “inactive”. For the same compound, the outcome [9] was “inactive”, the outcome [10] was “inactive” and the outcome [11] was “inactive”. For the same compound, the outcome [12] was “inactive”, the outcome [13] was “inactive” and the outcome [14] was “inactive”. For the same compound, the outcome [54] was “inactive”, the outcome [16] was “inactive” and the outcome [18] was “inactive”. For the same compound, the outcome [19] was “inactive”, the outcome [20] was “inactive” and the outcome [55] was “inactive”. For the same compound, the outcome [21] was “inactive”, the outcome [22] was “inactive” and the outcome [24] was “inactive”. The outcome [25] was “inactive”, the outcome [26] was “inactive” and the outcome [27] was “inactive”. The outcome [28] was “inactive”, the outcome [30] was “inactive” and the outcome [31] was “inactive”. The outcome [32] was “inactive”, the outcome [33] was “inactive” and the outcome [58] was “inactive”. For the same compound, the outcome [34] was “inactive”, the outcome [35] was “inactive” and the outcome [36] was “inactive”. The outcome [37] was “inactive”, the outcome [38] was “inactive” and the outcome [39] was “inactive”. For the same compound, the outcome [40] was “inactive”, the outcome [56] was “inactive” and the outcome [41] was “inactive”. For the same compound, the outcome [42] was “inactive”, the outcome [43] was “inactive” and the outcome [44] was “inactive”. For the same compound, the outcome [45] was “inactive”, the outcome [46] was “inactive” and the outcome [47] was “inactive”. For the same compound, the outcome [48] was “inactive”, the outcome [49] was “inactive” and the outcome [57] was “inactive”. The outcome [50] was “inactive”, the outcome [51] was “inactive” and the outcome [52] was “inactive”.
